Measured values reported in patent publication US20240094229A1, “CRISPR-CAS /TRANSCRIPTION FACTOR-BASED COMPETITION ASSAY FOR DETECTION OF MOLECULAR ANALYTES” (Arizona Board of Regents on Behalf of Arizona State …, priority 2022, published 2024).
“And” between values parts separate entries of the source, which are not always exact repeats. Identical values can stand only once. Counter-ions that a name gives are not always drawn.

Legend:
[1] = tested on: MphR; test: MphR biosensor, lateral flow readout for erythromycin; format: biochemical; conditions: 15 minutes of cleavage
Protocol: DNA/TF/small molecule samples were incubated and added to Cas12a reactions containing 106 nM Cas12a, 100 nM gRNA, and 200 nM FAM-[…]-Biotin (SEQ ID NO: 38) or 5′FAM-TTTT(internal T-Biotin)TTTTT-BHQ1 (SEQ ID NO: 38) reporter (IDT). The Cas12a concentration was increased to speed up the reaction time. […] The 10 μl samples were added directly to the dipstick, HybriDetect Universal Lateral Flow Assays from Milenia Biotec (MGHD1) and placed in 100 μl of LF running buffer containing 50% PEG 800. PEG was used to slow capillary flow down, giving reporter strands more time to interact with gold nanoparticle-antibody conjugates before flowing down the assay. This provided cleaner negative results. After 2 minutes, dipsticks were removed and imaged using a cellphone camera.
The robustness of the lateral flow readout scheme was further tested using the TF MphR to detect the antibiotic erythromycin. […] A closer look at the mean pixel intensity of the bands for the assays for 1, 0.5, 0.25, 0.05 μM and no SM confirm a decrease below 1 μM but show a readable signal in the ˜100 nM range (FIG. 14B). Lateral flow readout was also tested using the LacI-IPTG biosensor. A higher ratio between the IPTG+ and − samples were seen even with high concentrations of Lad, but a discernible difference in SM+ samples was still visualized (FIG. 15).

[2] = biological target: T1, TetR (Escherichia coli, UniProt P04483); test: TetR biosensor, Cas12a cleavage reaction with fluorescence readout, detection of aTc and Doxy; format: biochemical
T1 construct: His tag; made in house; host or cells: E. coli BL21 Star (DE3)
Protocol: (§1) Target and nontarget strands (NTS) were annealed at a 1:2 ratio in 1× TAE+12.5 mM Mg^2+ for 5 minutes at 95° C., then snap cooled. To form the DNA/TF complex, 100 nM dsTarget complexes were incubated with 10 μM corresponding transcription factors (unless otherwise stated) for 15 minutes at 37° C. in incubation buffer (40 mM Tris-HCl 8 mM MgCl2, 20 mM NaCl, pH 8). Small molecules were added next, following the same incubation procedure. Prior to addition, small molecules were suspended in water, DMSO or ethanol.
(§2) To monitor small molecule detection, 2 μl of the DNA/TF or DNA/TF/SM mixture were added to 10 μl total Cas12a cleavage reaction. […] Cleavage reactions were then immediately added to a microplate such as a Corning 384-well Black Flat Bottom Plates and read on a SynergyNeo2 Biotek fluorescence plate reader. Fluorescence measurements were taken with 487 nm excitation, 528 nm emission from the bottom of the plate for 2 hours. Fluorescence curves show raw fluorescence images unless otherwise stated.
(§3) Dose response curves were fit on OriginLab graphing software using equation 1. A1 is the minimum asymptote, A2 is the maximum asymptote, X is the log of a given dosage, and p is the hill slope. The center of the curve is equal to Log x0, so the half response or EC 50=10^Logx0.
The limit of detection for the biosensor was tested by introducing a range of small molecules from 4 nM to 40 μM using a 50:1 TetR dimer/dsDNA ratio (FIGS. 3E and F). […] The dose response curve of the biosensor was further assessed using the EC 50 value, which represents the concentration of a drug or analyte needed to reach a half maximum output signal based on a protein-analyte interaction.
Detection limits were also considered using the standard definition of LOD which considers LOD to be equal to the fluorescence of the blank sample plus three times the standard deviation (Table 7 and Table 8). The detection limit was determined using the equation (39):
Here, Sbl is equal to the mean of the SM negative samples and kSbl is the number of standard deviations of the negative sample added. For the Doxy experiments, 8 replicates were run and k=3. […] The detection limit (bolded) was then determined as the lowest concentration corresponding to a fluorescence signal great than Sm (the mean of small molecule negative samples+3× the standard deviation).

[3] = biological target: T1, TetR; test: TetR biosensor, lateral flow readout; format: biochemical; conditions: for second (test) band on lateral flow strip: TetR biosensor, 20-nt gRNA, 30 minutes cleavage
Protocol: DNA/TF/small molecule samples were incubated and added to Cas12a reactions containing 106 nM Cas12a, 100 nM gRNA, and 200 nM FAM-[…]-Biotin (SEQ ID NO: 38) or 5′FAM-TTTT(internal T-Biotin)TTTTT-BHQ1 (SEQ ID NO: 38) reporter (IDT). The Cas12a concentration was increased to speed up the reaction time. Samples were incubated for 30 minutes at 37° C. on a thermocycler block. The 10 μl samples were added directly to the dipstick, HybriDetect Universal Lateral Flow Assays from Milenia Biotec (MGHD1) and placed in 100 μl of LF running buffer containing 50% PEG 800. PEG was used to slow capillary flow down, giving reporter strands more time to interact with gold nanoparticle-antibody conjugates before flowing down the assay. This provided cleaner negative results. After 2 minutes, dipsticks were removed and imaged using a cellphone camera.
The trans-cleavage capabilities of Cas12a can cleave any single-stranded DNA in the system, enabling a variety of chemical modifications to be used in the single-stranded reporter. This feature allows for implementation of a visible paper-based lateral flow readout system using reporters with FAM and biotin modifications on either end (19, 21-26). When paired with a lateral flow assay, the fully intact reporter binds to the first line (control line) along with an attached gold nanoparticle/antibody complex, and can be visualized, as shown in FIG. 10. When Cas12a enzyme is active, the reporter is cleaved and the portion containing the gold nanoparticle flows down the assay and can be visualized by the formation of the second band. Thus, the presence of two bands is used to indicate the presence of the target small molecule.
Next, the lateral flow readout was tested by introducing aTc, Doxy, and IPTG to the TetR biosensor. The samples were incubated with Cas12a cleavage mixture containing the 20-nt gRNA. […] Thus, the lateral flow assay can provide a visual readout mechanism for the biosensor, and the assay remains small-molecule specific.
To ensure the biosensor could provide adequate sensitivity, limit of detection experiments were repeated using TetR for detecting aTc and Doxy on the lateral flow assays.

[4] = biological target: T2, CymR (Pseudomonas putida, UniProt O33453, A171V/S110G); format: biochemical; conditions: CymR biosensor, slope of kinetic curves
T2 construct: His tag; made in house
Protocol: as §1, §2, §3

[5] = tested on: Cas12a; test: Toxicity study for DMSO on Cas12a activation; format: biochemical, Lachnospiraceae bacterium; conditions: 0.03% DMSO
Protocol: The toxicity of solvents on Cas12a activation was tested by titrating in DMSO and monitoring the fluorescence output over two hours. A more significant decrease in activation was observed above 1% DMSO.

[6] = EC 50, 10 μM TetR, 50:1 TetR dimer/dsDNA ratio, small molecule 4 nM to 40 μM
[7] = EC:50, 5 nM dsDNA, 500 nM TF (TetR), 24 nt gRNA, 1 h
[8] = EC:50, 50 nM dsDNA, 5 μM TF (TetR), 20 nt gRNA, 30 minutes of cleavage
[9] = EC:50, 50 nM dsDNA, 5 μM TF (TetR), 24 nt gRNA, 1 h
[10] = EC:50, 100 nM dsDNA, 2 μM TF (TetR), 1 h
[11] = EC:50, 100 nM dsDNA, 10 μM TF (TetR), 1 h, 50-fold TetR dimer:DNA
[12] = EC:50, 100 nM dsDNA, 20 μM TF (TetR), 1 h
[13] = 10 μM TetR, 50:1 TetR dimer/dsDNA ratio

T1 sequence (P04483 whole entry): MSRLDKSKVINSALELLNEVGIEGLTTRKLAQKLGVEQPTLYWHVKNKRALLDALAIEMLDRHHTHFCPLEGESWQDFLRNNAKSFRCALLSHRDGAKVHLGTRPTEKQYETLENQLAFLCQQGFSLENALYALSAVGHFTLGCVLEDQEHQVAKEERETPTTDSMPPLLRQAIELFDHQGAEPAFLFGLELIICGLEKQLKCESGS
T2 sequence (O33453 whole entry S110G/A171V): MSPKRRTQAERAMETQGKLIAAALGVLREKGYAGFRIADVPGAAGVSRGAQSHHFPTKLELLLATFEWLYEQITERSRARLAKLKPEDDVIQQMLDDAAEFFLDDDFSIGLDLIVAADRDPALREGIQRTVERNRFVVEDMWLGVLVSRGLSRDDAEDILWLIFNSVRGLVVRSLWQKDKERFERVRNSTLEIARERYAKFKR

CC[C@H]1OC(=O)[C@H](C)[C@@H](O[C@H]2C[C@@](C)(OC)[C@@H](O)[C@H](C)O2)[C@H](C)[C@@H](O[C@@H]2O[C@H](C)C[C@H](N(C)C)[C@H]2O)[C@](C)(O)C[C@@H](C)C(=O)[C@H](C)[C@@H](O)[C@]1(C)O [Erythromycin]
concentration range with readable signal (mean pixel intensity) [1]: ~100 nM

C[C@H]1c2cccc(O)c2C(=O)C2=C(O)[C@]3(O)C(=O)C(C(N)=O)=C(O)[C@@H](N(C)C)[C@@H]3[C@@H](O)[C@@H]21 [Doxy, doxycycline]
EC50 [2, 6]: 766 nM
EC50 [2, 7]: 87 nM and 88 nM
EC50 [2, 8]: 430 nM
EC50 [2, 9]: 1590 nM
EC50 [2, 10]: 110 nM
EC50 [2, 11]: 950 nM
EC50 [2, 12]: 4000 nM and 4220 nM
EC50 [3]: 27 nM

CC(C)S[C@@H]1O[C@H](CO)[C@H](O)[C@H](O)[C@H]1O [IPTG, isopropyl β-D-1-thiogalactopyranoside]
second (test) band on lateral flow strip [3]: little to no banding

CC(C)c1ccc(C(=O)O)cc1 [cuminic acid]
linear region of cleavage rate vs SM concentration (calibration curve) [4]: ≤ 50 µM

Cc1c2c(c(O)c3c(O)cccc13)C(=O)[C@]1(O)C(=O)C(C(N)=O)=C(O)[C@@H](N(C)C)[C@@H]1C2 [aTc, anhydrotetracycline-HCl]
concentration at complete loss of signal [2, 13]: 0.4 µM
concentration giving maximum (near maximum) fluorescence output [2, 13]: 10 µM
Fluorescence Mean ([2]; 20 nt gRNA, Concentration 0.005 (unit not given)): 21303.25
Fluorescence Mean ([2]; 20 nt gRNA, Concentration 0.01 (unit not given)): 21302
Fluorescence Mean ([2]; 20 nt gRNA, Concentration 0.05 (unit not given)): 24918.25
Fluorescence Mean ([2]; 20 nt gRNA, Concentration 0.1 (unit not given)): 32806
Fluorescence Mean ([2]; 20 nt gRNA, Concentration 1 (unit not given)): 40622.5
Fluorescence Mean ([2]; 24 nt gRNA, Concentration 0.005 (unit not given)): 9199.5
Fluorescence Mean ([2]; 24 nt gRNA, Concentration 0.01 (unit not given)): 8795
Fluorescence Mean ([2]; 24 nt gRNA, Concentration 0.05 (unit not given)): 12129.5
Fluorescence Mean ([2]; 24 nt gRNA, Concentration 0.1 (unit not given)): 20059
Fluorescence Mean ([2]; 24 nt gRNA, Concentration 1 (unit not given)): 30309.5
EC50 [2, 6]: 4230 nM
EC50 ([2]; EC:50, 5 nM dsDNA, 500 nM TF (TetR), 20 nt gRNA, 30 minutes of cleavage): 51 nM
EC50 [2, 7]: 50 nM
EC50 [2, 8]: 1510 nM
EC50 [2, 9]: 1770 nM
EC50 [2, 10]: 840 nM
EC50 [2, 11]: 4420 nM
EC50 [2, 12]: 10600 nM
EC50 [3]: 380 nM
second (test) band on lateral flow strip [3]: strong second band
concentration showing a discernible signal ([3]; lateral flow, 30 minutes of cleavage): 400 nM

C[S+](C)[O-] [DMSO]
effects on Cas12a cleavage at experimental levels [5]: not detrimental
